# Literature values in patent US11517522B2, “Aprepitant ready-to-use injection emulsion compositions” (priority 2020, dated 2022).
# What was measured:
# [1] = given orally; commercial nanoparticulate composition (Emend)
# [2] = IV infusion
# [3] = system: acute and delayed chemotherapy-induced nausea and vomiting; settings: versus aprepitant
solubility in acetonitrile (acetonitrile),solubility in ethanol (ethanol),solubility in isopropyl acetate (isopropyl acetate),solubility in water (water),bioavailability [1],Compound,time for conversion to aprepitant [2],comparison with aprepitant in prevention and control of acute and delayed chemotherapy-induced nausea and vomiting [3]
slightly soluble,sparingly soluble,sparingly soluble,practically insoluble,60-65%,"C[C@@H](O[C@H]1OCCN(Cc2n[nH]c(=O)[nH]2)[C@H]1c1ccc(F)cc1)c1cc(C(F)(F)F)cc(C(F)(F)F)c1 [Aprepitant, 5-([(2R, 3S)-2-((R)-1-[3,5-bis (trifluoromethyl)phenyl]ethoxy)-3-(4-fluoro-phenyl)morpholino]methyl)-1H-1,2,4-triazol-3(2H)-one]",–,–
–,–,–,–,–,"C[C@@H](O[C@H]1OCCN(Cc2nc(O)n(P(=O)(O)O)n2)[C@H]1c1ccc(F)cc1)c1cc(C(F)(F)F)cc(C(F)(F)F)c1 [Fosaprepitant, fosaprepitant dimeglumine]",less than 30 minutes,non-inferiority and bioequivalency
